Assay results as given in patent US11576981B2, “Acyl hydrazone linkers, methods and uses thereof” (Ontario Institute for Cancer Research (OICR), priority 2017, dated 2023).

Experiments:
[1] = Half-life of model acyl hydrazones in a simulated lysosomal environment (pH 4.5); assay type: physicochemical; settings: read-out: Acidic (pH 4.5) Half life
Description: Towards the goal developing enhanced control of ADC linker stability, several model cyclic acyl hydrazones whose lability is modulated either by steric or stereoelectronic effects have been prepared. Exemplary acyl hydrazones containing a substituted phenyl group adjacent to the imine carbon have been synthesized. Starting with the acyl hydrazone structure (D) present in Mylotarg, the adjacent steric and electronic environments in model linker compounds were varied and their half-life tested in a simulated lysosomal environment (pH 4.5), as shown in Table 1. […] On the other hand, incorporation of a methoxy group in the same position (as in G) rendered the cyclic hydrazone very labile with a half-life of only 2 min.

[2] = test system: glioblastoma EGFR^+ U87 cell lines (U87MG engineered to overexpress wt EGFR); assay: Cell proliferation assay (SRB), EGFR^+ U87 cells; assay type: cell-based; settings: Homo sapiens, U-87 MG, 72 h
Procedure: (§1) The parental U87MG glioblastoma human tumor cell line (ATCC) and the corresponding cell line engineered to overexpress wt EGFR (EGFR^+ U87) (˜2M receptors per cell) were grown in DMEM medium containing 10% fetal bovine serum and 2 mM L-glutamine. Cells were inoculated into 96 well microtiter plates in 100 μL at a plating density of 4000 cells/well After cell inoculation, the microtiter plates were incubated at 37° C., 5% CO2, 95% air and 100% relative humidity. After 24 h incubation, experimental drugs were diluted to 10× the desired final maximum test concentration with complete medium and additional 10-fold or ½ log serial dilutions were made to provide a total of 6 drug concentrations plus control. Aliquots of 10 μl of these different drug dilutions were added to the appropriate microtiter wells already containing 100 μl of medium, resulting in the required final drug concentrations.
(§2) Following drug addition, the plates were incubated for an additional 72 h at 37° C., 5% CO2, 95% air, and 100% relative humidity. […] Bound stain was subsequently solubilized with 10 mM trizma base, and the absorbance was read on an automated plate reader at a wavelength of 515 nm. The growth was calculated at each of the drug concentrations levels relative to untreated cells (media only control).
(§3) Percentage growth inhibition was calculated as: [(Ti)/(C)]×100 […]

[3] = test system: parental U87MG glioblastoma human tumor cell line; assay: Cell proliferation assay (SRB), U87 parental cells; assay type: cell-based; settings: U-87 MG, 72 h
Procedure: as §1, §2, §3

[4] = Stability of acyl hydrazones on incubation in human plasma; assay type: in vitro ADME; settings: 6 days incubation in human plasma; remaining parent acyl hydrazone
Procedure: In addition, for an ADC to have a better therapeutic window, ideally it should be stable in plasma and having the payload released only upon entry to the target cells. Thus targeted cytotoxicity would be mostly confined to the diseased cells of interest. Starting with the acyl hydrazone structure (D) present in Mylotarg, the adjacent steric and electronic environments were varied in model linker compounds and their stability was tested in plasma.

[5] = test system: SKOV3 ovarian cancer cell line; assay: Cytotoxicity against SKOV3 (CellTiter-Glo ATP viability); assay type: cell-based; settings: ATP content
Procedure: SKOV3 ovarian cells are incubated with the effectors for a period corresponding to 2 to 3 times their estimated doubling time and the amount of viable cells is determine by measuring ATP content in the wells. […] All ADCs are diluted in DPBS to 6× the highest concentration tested, followed by 10 3-fold serial dilutions in DPBS for a total of 11 concentration points. Each point is added to triplicate wells. DPBS is added in wells to measure the maximum growth. Cells are diluted at their appropriate seeding density (ranging from 150 to 1000 cells per well) in complete media supplemented with glutamine 2 mM, serum and antibiotic cocktail. They are distributed in white, opaque bottom, tissue-culture treated 384 well plates and incubated for 24 hrs at 37° C.+5% CO2. […] Total ATP is measured using CellTiter-Glo reagent from Promega as recommended by the supplier. […] Signal output is measured on a luminescence plate reader (envision, Perkin Elmer) set at an integration time of 0.1 sec. […]
Each concentration point (S) is normalized to the negative control wells (NC) and expressed as % survival (NC−S/NC×100). Potency (IC50) and efficacy are calculated from a non-linear curve fit of the points versus log of the concentrations without constrain on the slope. Refined data are analysed using Prism software.

Row | half-life [1] [min] | Molecule | other results
1 | 15 | C/C(=N\NC(=O)CC(C)(C)S)c1ccc(OCCCC(=O)O)cc1 [Compound Ia, 4-(4-(1-(2-(3-Mercaptomethylbutanoyl) hydrazineylidene)ethyl)phenoxy) butanoic acid] | –
2 | 234 | CC(C)(S)CC(=O)NN=C1CCCc2cc(OCCCC(=O)O)cc(O)c21 [Compound Ib, 4-((4-Hydroxy-5-(2-(3-mercapto-3-methylbutanoyl)hydrazono)-5,6,7,8-tetrahydronaphthalen-2-yl)oxy)butanoic acid] | –
3 | 31 | CC(C)(S)CC(=O)N/N=C1\CCCc2cc(OCCCC(=O)O)ccc21 [Compound Ie, 4-((5-(2-(3-Mercapto-3-methylbutanoyl)hydrazineylidene)-5,6,7,8-tetrahydronaphthalen-2-yl)oxy)butanoic acid] | –
4 | – | COc1cc2cc(c1Cl)N(C)C(=O)C[C@H](OC(=O)[C@H](C)N(C)C(=O)CCS)[C@]1(C)O[C@H]1[C@H](C)[C@@H]1C[C@@](O)(NC(=O)O1)[C@H](OC)/C=C/C=C(\C)C2 [DM1] | IC50 [2]: 0.0103 µM; IC50 [3]: 0.0123 µM
5 | 15 | COc1ccc(/C(C)=N/NC(C)=O)cc1 [D] | % remaining after 6 days [4]: 37%
6 | 2 | COc1cc(O)cc2c1/C(=N/NC(C)=O)CCC2 [G] | –
7 | 88 | CC(=O)N/N=C1\CCCc2ccc(F)cc21 [K] | –
8 | 185 | CC(=O)N/N=C1\CCc2cccc(O)c21 [L] | % remaining after 6 days [4]: 50%
9 | – | Synagis-SMCC-DM1: negative control ADC | IC50 [5]: 0.00964 µM
